Experimental data as given in patent US7074789B2, “Kinase inhibitors” (Amgen Inc., priority 1999, dated 2006).

How the values were obtained:
Format in all cases: biochemical
Lck = molecular target: T1, Lck (Homo sapiens, UniProt P06239); experiment: Kinase inhibition assay (33P transfer), Lck; conditions: Table 3; read-out: Lck-1
T1 construct: Kinases are expressed as either kinase domains or full length constructs; made in house
Procedure, shortened: (§1)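 Kinase domains or full-length kinases, GST- or His-tagged and expressed in E. coli or baculovirus/High Five cells, transferred 33PO4 from ATP onto plate-bound poly(Glu,Tyr) 4:1 or poly(Arg,Ser) 3:1. After incubation, plates were washed with 0.5% phosphoric acid and counted by liquid scintillation.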

Lyn = molecular target: T2, Lyn (Homo sapiens, UniProt P07948); experiment: Kinase inhibition assay (33P transfer), Lyn; conditions: Table 6, Lyn-1 kinase inhibition class
T2 construct: Kinases are expressed as either kinase domains or full length constructs; made in house
Description: (§2) The inhibitor compounds described herein are screened in the following manner. Kinases suitable for use in the following protocol to determine kinase activity of the compounds described herein include, -but are not limited to: Lck, Lyn, Src, Fyn, Syk, Zap-70, Itk, Tec, Btk, EGFR, ErbB2, Kdr, Flt-1, Flt-3, Tek, c-Met, InsR, and AKT.
(§3) Kinases are expressed as either kinase domains or full length constructs fused to glutathione S-transferase (GST) or polyHistidine tagged fusion proteins in either E. colior Baculovirus-High Five expression systems. They are purified to near homogeneity by affinity chromatography essentially as previously described (Lehr et al., 1996; Gish et al., 1995). In some instances, kinases are co-expressed or mixed with purified or partially purified regulatory polypeptides prior to measurement of activity.
(§4) Kinase activity and inhibition are measured essentially by established protocols (Braunwalder et al., 1996). Briefly, The transfer of ^33PO4 from ATP to the synthetic substrates poly(Glu, Tyr) 4:1 or poly(Arg, Ser) 3:1 attached to the bioactive surface of microtiter plates serves as the basis to evaluate enzyme activity. After an incubation period, the amount of phosphate transferred is measured by first washing the plate with 0.5% phosphoric acid, adding liquid scintillant, and then counting in a liquid scintillation detector. The IC50 is determined by the concentration of compound that causes a 50% reduction in the amount of […] incorporated onto the substrate bound to the plate.

Src = molecular target: T3, Src (Homo sapiens, UniProt P12931); experiment: Kinase inhibition assay (33P transfer), Src; conditions: Table 6, Src-1 kinase inhibition class
T3 construct: Kinases are expressed as either kinase domains or full length constructs; made in house
Description: as §2, §3, §4

Fyn = molecular target: T4, Fyn (Homo sapiens, UniProt P06241); experiment: Kinase inhibition assay (33P transfer), Fyn; conditions: read-out: Fyn-1
T4 construct: Kinases are expressed as either kinase domains or full length constructs; made in house
Description: as §2, §3, §4

Zap-70 = molecular target: T5, Zap-70 (Homo sapiens, UniProt P43403); experiment: Kinase inhibition assay (33P transfer), Zap-70; conditions: Table 3; read-out: Zap-1
T5 construct: Kinases are expressed as either kinase domains or full length constructs; made in house
T5 sequence (P43403 1-619): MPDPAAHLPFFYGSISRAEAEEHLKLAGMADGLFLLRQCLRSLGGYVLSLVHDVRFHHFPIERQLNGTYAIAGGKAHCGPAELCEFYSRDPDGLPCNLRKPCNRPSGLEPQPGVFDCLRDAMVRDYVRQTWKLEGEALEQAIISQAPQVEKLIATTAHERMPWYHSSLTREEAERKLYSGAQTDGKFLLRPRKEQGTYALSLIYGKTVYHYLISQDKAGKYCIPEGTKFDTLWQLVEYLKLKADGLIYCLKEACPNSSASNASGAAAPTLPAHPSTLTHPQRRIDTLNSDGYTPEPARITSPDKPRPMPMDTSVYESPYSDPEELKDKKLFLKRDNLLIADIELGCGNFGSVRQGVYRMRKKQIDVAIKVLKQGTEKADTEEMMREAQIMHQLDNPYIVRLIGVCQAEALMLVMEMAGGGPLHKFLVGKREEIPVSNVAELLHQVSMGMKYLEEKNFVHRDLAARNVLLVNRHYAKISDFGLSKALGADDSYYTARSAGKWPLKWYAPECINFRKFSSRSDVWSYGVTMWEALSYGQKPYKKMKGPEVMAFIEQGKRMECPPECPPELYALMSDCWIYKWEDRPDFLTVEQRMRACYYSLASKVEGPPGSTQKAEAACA
Procedure, shortened: as §1

Itk = molecular target: T6, Itk (Homo sapiens, UniProt Q08881); experiment: Kinase inhibition assay (33P transfer), Itk; conditions: Table 3; read-out: Itk-1
T6 construct: Kinases are expressed as either kinase domains or full length constructs; made in house
T6 sequence (Q08881 1-620): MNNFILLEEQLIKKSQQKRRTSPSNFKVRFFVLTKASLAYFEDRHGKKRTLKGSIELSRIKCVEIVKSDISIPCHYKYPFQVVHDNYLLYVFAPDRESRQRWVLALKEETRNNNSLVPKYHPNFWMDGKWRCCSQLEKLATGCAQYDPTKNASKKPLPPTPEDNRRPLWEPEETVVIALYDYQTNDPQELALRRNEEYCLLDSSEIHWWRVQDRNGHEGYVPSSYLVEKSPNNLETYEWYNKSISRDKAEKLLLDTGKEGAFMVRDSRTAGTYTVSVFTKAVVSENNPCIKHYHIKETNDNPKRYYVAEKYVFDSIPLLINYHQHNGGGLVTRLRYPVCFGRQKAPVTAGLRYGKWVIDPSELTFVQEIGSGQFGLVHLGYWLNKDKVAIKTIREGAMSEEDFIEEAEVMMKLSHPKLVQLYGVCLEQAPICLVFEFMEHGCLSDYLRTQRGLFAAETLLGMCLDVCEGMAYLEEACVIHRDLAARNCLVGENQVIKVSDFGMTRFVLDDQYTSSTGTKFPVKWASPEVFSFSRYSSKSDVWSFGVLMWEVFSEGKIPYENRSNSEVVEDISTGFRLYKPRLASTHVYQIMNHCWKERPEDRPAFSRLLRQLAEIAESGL
Procedure, shortened: (§5)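 Kinase domains or full-length enzymes, GST- or polyHis-tagged, were expressed in E. coli or baculovirus High Five cells and affinity-purified. Transfer of 33PO4 from ATP onto plate-bound poly(Glu,Tyr) 4:1 or poly(Arg,Ser) 3:1 was counted by liquid scintillation after a 0.5% phosphoric acid wash. IC50 = concentration halving incorporation.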

EGFR = molecular target: T7, EGFR (Homo sapiens, UniProt P00533); experiment: Kinase inhibition assay (33P transfer), EGFR; conditions: Table 2, kinase inhibition class; read-out: EGFR-1
T7 construct: Kinases are expressed as either kinase domains or full length constructs; made in house
Procedure, shortened: as §5

Kdr = molecular target: T8, Kdr (Homo sapiens, UniProt P35968); experiment: Kinase inhibition assay (33P transfer), Kdr; conditions: Table 3; read-out: KDR-1
T8 construct: Kinases are expressed as either kinase domains or full length constructs; made in house
Procedure, shortened: as §1

Flt-1 = molecular target: T9, Flt-1 (Homo sapiens, UniProt P17948); experiment: Kinase inhibition assay (33P transfer), Flt-1
T9 construct: Kinases are expressed as either kinase domains or full length constructs; made in house
Description: as §2, §3, §4

Tek = molecular target: T10, Tek (Homo sapiens, UniProt Q02763); experiment: Kinase inhibition assay (33P transfer), Tek; conditions: read-out: Tek-1
T10 construct: Kinases are expressed as either kinase domains or full length constructs; made in house
Procedure, shortened: as §5

c-Met = molecular target: T11, c-Met (Homo sapiens, UniProt P08581); experiment: Kinase inhibition assay (33P transfer), c-Met; conditions: Table 2, kinase inhibition class; read-out: Met-1
T11 construct: Kinases are expressed as either kinase domains or full length constructs; made in house
Procedure, shortened: as §5

AKT = molecular target: T12, AKT (Homo sapiens, UniProt Q9Y243); experiment: Kinase inhibition assay (33P transfer), AKT; conditions: Table 2, kinase inhibition class; read-out: AKT3-1
T12 construct: Kinases are expressed as either kinase domains or full length constructs; made in house
Procedure, shortened: as §1

PDGFRB = molecular target: T13, PDGFRB (Homo sapiens, UniProt P09619); experiment: Kinase inhibition assay (33P transfer), PDGFRB; conditions: read-out: PDGFRB-1
T13 construct: Kinases are expressed as either kinase domains or full length constructs; made in house

Hck-1 = molecular target: T14, Hck-1 (Homo sapiens, UniProt P08631); experiment: Kinase inhibition assay (33P transfer), Hck; conditions: Table 6, Hck-1 kinase inhibition class
T14 construct: Kinases are expressed as either kinase domains or full length constructs; made in house

ErbB4 = molecular target: T15, ErbB4 (Homo sapiens, UniProt Q15303); experiment: Kinase inhibition assay (33P transfer), ErbB4; conditions: read-out: ErbB4-1
T15 construct: Kinases are expressed as either kinase domains or full length constructs; made in house

FGFR1 = molecular target: T16, FGFR1 (Homo sapiens, UniProt P11362); experiment: Kinase inhibition assay (33P transfer), FGFR1; conditions: read-out: FGFR1-1
T16 construct: Kinases are expressed as either kinase domains or full length constructs; made in house
T16 sequence (P11362 22-822, species assumed): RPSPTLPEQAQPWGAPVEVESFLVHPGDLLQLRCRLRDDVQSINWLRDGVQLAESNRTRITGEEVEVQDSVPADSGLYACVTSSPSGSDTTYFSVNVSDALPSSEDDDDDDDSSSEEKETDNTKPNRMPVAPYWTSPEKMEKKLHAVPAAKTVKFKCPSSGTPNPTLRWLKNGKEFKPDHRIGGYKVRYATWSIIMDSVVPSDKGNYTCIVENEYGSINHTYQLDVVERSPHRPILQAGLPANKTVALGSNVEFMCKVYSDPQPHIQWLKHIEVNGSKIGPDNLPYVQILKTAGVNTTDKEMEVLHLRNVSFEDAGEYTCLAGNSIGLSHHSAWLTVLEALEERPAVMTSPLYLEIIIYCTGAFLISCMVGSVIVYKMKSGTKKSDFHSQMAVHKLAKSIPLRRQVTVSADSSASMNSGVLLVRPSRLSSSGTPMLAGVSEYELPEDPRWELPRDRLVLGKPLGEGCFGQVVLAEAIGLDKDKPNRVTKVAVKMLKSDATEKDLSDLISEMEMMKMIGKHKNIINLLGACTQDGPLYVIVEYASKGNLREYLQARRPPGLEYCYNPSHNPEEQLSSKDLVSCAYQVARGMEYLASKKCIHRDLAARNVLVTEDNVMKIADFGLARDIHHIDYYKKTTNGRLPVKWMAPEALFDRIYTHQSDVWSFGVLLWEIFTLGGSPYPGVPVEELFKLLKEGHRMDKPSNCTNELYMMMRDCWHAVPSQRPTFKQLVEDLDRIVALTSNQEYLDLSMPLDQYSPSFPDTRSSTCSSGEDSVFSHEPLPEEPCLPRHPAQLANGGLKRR

T2 sequence (P07948 whole entry, species assumed, the tested form may be a part): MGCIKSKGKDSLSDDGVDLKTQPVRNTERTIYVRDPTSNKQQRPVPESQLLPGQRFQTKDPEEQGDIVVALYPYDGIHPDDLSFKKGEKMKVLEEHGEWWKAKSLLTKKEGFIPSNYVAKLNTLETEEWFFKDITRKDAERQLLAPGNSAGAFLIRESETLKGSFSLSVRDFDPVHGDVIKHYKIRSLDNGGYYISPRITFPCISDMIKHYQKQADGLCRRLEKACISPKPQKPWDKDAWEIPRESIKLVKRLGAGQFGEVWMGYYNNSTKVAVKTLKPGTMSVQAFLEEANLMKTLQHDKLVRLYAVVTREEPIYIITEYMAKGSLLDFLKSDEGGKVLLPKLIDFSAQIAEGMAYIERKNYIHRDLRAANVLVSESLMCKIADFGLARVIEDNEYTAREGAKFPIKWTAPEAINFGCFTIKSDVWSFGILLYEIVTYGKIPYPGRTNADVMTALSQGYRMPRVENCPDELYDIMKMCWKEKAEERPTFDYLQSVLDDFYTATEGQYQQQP
T7 sequence (P00533 25-1210, species assumed): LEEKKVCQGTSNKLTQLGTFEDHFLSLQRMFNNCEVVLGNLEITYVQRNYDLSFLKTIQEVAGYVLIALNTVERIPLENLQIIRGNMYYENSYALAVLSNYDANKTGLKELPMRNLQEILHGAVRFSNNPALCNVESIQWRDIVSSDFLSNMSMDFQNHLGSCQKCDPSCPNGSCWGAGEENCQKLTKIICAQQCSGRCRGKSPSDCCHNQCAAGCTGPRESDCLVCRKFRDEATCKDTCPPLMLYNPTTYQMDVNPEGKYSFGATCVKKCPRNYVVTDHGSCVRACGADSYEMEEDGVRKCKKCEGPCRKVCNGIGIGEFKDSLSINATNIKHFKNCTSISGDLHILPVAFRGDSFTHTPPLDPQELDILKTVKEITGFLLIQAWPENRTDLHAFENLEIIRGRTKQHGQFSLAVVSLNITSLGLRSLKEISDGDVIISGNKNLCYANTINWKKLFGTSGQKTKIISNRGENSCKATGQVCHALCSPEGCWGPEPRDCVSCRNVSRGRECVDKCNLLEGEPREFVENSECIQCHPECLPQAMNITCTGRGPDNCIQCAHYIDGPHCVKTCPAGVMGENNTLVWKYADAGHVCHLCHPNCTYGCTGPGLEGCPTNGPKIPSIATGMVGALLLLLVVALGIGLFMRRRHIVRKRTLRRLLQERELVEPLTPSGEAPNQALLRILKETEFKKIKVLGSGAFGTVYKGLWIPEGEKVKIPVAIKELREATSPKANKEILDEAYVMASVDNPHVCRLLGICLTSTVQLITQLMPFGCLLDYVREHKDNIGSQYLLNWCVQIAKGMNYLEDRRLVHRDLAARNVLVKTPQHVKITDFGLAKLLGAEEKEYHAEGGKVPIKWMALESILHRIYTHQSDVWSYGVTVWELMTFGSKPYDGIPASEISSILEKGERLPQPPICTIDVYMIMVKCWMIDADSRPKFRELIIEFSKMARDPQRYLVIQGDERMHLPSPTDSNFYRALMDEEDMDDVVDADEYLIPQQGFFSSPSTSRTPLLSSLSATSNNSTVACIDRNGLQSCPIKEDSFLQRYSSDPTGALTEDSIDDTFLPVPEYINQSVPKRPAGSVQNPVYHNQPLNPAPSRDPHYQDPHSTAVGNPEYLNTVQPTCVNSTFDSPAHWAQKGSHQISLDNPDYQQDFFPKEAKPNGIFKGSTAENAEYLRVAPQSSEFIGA
T8 sequence (P35968 20-1356, species assumed): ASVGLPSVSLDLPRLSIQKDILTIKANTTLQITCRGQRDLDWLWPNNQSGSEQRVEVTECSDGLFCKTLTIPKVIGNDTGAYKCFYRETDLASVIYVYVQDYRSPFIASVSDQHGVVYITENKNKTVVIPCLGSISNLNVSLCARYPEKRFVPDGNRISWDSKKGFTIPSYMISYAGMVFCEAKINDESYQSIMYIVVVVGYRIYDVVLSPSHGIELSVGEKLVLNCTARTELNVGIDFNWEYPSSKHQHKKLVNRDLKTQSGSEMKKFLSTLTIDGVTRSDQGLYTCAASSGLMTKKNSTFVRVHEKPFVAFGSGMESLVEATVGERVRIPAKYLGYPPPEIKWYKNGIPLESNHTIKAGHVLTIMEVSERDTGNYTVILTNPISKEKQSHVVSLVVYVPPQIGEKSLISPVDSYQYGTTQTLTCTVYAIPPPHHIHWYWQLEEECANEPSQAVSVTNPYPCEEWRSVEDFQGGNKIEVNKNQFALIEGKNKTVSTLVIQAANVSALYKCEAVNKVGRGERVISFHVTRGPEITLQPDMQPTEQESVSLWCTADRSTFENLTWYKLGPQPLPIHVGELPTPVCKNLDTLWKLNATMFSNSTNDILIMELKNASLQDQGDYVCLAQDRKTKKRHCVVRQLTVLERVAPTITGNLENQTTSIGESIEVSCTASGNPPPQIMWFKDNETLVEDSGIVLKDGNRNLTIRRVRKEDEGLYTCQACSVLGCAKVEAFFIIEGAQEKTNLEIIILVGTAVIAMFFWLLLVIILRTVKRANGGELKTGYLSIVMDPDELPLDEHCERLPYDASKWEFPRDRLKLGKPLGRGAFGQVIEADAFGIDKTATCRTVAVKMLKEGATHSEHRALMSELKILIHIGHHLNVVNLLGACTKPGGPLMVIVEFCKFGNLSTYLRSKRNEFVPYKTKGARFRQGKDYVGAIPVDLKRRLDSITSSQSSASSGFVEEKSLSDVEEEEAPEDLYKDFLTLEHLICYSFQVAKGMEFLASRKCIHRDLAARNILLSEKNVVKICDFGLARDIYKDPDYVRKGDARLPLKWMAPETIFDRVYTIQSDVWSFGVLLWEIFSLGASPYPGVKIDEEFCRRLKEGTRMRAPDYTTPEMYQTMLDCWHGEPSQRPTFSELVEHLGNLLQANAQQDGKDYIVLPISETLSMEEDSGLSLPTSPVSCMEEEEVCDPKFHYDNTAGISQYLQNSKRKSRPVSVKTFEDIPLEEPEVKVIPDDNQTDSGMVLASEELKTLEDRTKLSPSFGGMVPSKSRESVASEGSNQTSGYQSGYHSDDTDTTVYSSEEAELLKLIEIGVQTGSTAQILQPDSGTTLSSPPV
T13 sequence (P09619 33-1106, species assumed): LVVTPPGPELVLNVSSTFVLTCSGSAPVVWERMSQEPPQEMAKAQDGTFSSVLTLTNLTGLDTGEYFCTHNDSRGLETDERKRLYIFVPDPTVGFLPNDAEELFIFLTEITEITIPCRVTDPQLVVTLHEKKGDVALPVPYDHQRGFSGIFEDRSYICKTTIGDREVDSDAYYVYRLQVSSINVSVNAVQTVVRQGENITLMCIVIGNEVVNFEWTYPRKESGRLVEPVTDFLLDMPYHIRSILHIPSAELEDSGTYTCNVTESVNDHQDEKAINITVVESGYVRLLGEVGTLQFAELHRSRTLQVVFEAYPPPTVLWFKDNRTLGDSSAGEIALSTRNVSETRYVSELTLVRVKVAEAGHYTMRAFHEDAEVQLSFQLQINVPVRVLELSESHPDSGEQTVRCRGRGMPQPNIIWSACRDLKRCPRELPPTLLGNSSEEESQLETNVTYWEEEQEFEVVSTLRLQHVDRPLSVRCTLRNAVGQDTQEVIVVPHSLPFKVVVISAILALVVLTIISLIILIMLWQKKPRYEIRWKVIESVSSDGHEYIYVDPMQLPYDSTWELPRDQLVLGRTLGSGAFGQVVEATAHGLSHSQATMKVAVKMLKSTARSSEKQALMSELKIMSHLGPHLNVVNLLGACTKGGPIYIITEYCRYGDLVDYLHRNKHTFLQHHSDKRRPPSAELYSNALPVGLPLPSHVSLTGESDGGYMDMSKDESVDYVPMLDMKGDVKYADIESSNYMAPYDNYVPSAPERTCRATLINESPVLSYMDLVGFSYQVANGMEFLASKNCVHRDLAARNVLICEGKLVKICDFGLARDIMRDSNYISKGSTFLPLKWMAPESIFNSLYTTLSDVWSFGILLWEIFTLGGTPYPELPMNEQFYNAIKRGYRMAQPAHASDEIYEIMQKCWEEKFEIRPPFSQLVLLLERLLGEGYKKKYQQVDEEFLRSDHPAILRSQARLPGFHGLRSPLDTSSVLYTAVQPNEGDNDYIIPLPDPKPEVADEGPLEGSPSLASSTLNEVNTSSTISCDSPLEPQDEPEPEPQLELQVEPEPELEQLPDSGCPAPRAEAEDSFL

Structure (SMILES)	IC50 (Lck) [µM]	IC50 (Lyn) [µM]	IC50 (Src) [µM]	IC50 (Fyn) [µM]	IC50 (Zap-70) [µM]	IC50 (Itk) [µM]	IC50 (EGFR) [µM]	IC50 (Kdr) [µM]	IC50 (Flt-1) [µM]	IC50 (Tek) [µM]	IC50 (c-Met) [µM]	IC50 (AKT) [µM]	IC50 (PDGFRB) [µM]	IC50 (Hck-1) [µM]	IC50 (ErbB4) [µM]	IC50 (FGFR1) [µM]
CC(=O)NCc1ccc(Nc2ncnc(Nc3cc(-c4ccco4)n[nH]3)n2)cc1 [Compound 443]	> 11.5	1.02 to 6.15	6.15 to 8.97	6.15 to 8.97	> 11.5	1.02 to 6.15	1.02 to 6.15	< 1.02	1.02 to 6.15	> 11.5	1.02 to 6.15	> 11.5	1.02 to 6.15	> 11.5	1.02 to 6.15	1.02 to 6.15
COc1ccc(Nc2nc3ccccc3n2-c2ncnc(Nc3cc(OC)c(OC)c(OC)c3)n2)cc1OC [Compound 400]	> 8.5	> 8.5	> 8.5	> 8.5	> 8.5	> 8.5	> 8.5	< 0.755	0.755 to 4.53	> 8.5	> 8.5	> 8.5	> 8.5	> 8.5	> 8.5	> 8.5
COc1cccc(Nc2nc3ccccc3n2-c2ncnc(Nc3cc(OC)c(OC)c(OC)c3)n2)c1 [Compound 415]	4.8 to 7.01	> 9.01	> 9.01	> 9.01	> 9.01	> 9.01	> 9.01	< 0.801	0.801 to 4.8	> 9.01	> 9.01	> 9.01	< 0.801	> 9.01	> 9.01	< 0.801

The next lines start with the values.

IC50 (Lck) [µM]	IC50 (Lyn) [µM]	IC50 (Src) [µM]	IC50 (Fyn) [µM]	IC50 (Zap-70) [µM]	IC50 (Itk) [µM]	IC50 (EGFR) [µM]	IC50 (Kdr) [µM]	IC50 (Flt-1) [µM]	IC50 (Tek) [µM]	IC50 (c-Met) [µM]	IC50 (AKT) [µM]	IC50 (PDGFRB) [µM]	IC50 (Hck-1) [µM]	IC50 (ErbB4) [µM]	IC50 (FGFR1) [µM]	Structure (SMILES)
< 0.801	> 9.01	> 9.01	> 9.01	> 9.01	> 9.01	> 9.01	< 0.801	< 0.801	> 9.01	> 9.01	> 9.01	< 0.801	> 9.01	> 9.01	< 0.801	COc1ccc(Nc2nc3ccccc3n2-c2ncnc(Nc3cc(OC)c(OC)c(OC)c3)n2)cc1 [Compound 397]
0.942 to 5.65	5.65 to 8.25	> 10.6	0.942 to 5.65	0.942 to 5.65	8.25 to 10.6	0.942 to 5.65	0.942 to 5.65	0.942 to 5.65	5.65 to 8.25	0.942 to 5.65	> 10.6	0.942 to 5.65	5.65 to 8.25	0.942 to 5.65	0.942 to 5.65	CC(=O)NS(=O)(=O)c1ccc(Nc2ncnc(-n3c(N)nc4ccccc43)n2)cc1 [Compound 440]
